Key:
[1] = Corrosion rate by LPR sweep, copper coupons in synthetic water, 50° C., 1 ppm free chlorine after 0.5 hrs (Examples 1 and 2); details: for corrosion inhibition properties over the entire 18 hour period (in words) / corrosion resistance when free chlorine was added (in words): Example 2
Protocol: (§1) One liter samples of synthetic water were each dosed with the compositions in Table 1.
(§2) The apparatus used for the corrosion testing was a Gamry Multiport Corrosion Cell and Gamry Reference 600+potentiostat with multiplexor. Copper coupons (CDA110) were added to the sample cells containing neutral water (pH 7.5), and the cells were dosed with 50 ppm of scale inhibitor (co-polymer and 2-phosphonobutane-1,2,4-yricarboxylic acid) and heated to 50° C. and maintained at this temperature throughout the testing. The cells were continuously stirred at a speed of 350 rpm. A cylindrical working electrode was submerged into the test solutions, and an LPR sweep (linear polarization resistance) was performed every hour for 18 hours. After the 0.5 hrs mark, 1 ppm of free chlorine was dosed into the corrosion cell.
(§3) One liter samples of the synthetic water described above with respect to Example 1 were each dosed with the compositions in Table 5 and processed under conditions similar to Example 1.

[2] = Cl2 demand in the corrosion cell test (Examples 1 and 2); format: physicochemical
Protocol: as §1, §2, §3

Compound: CCCCCCCCCCCC(=O)NCCN(CCOCC(=O)[O-])CC(=O)[O-].[Na+].[Na+] [DLADAA, Disodium Lauroamphodiacetate]
- CR Average (10-18 hrs) ([1]; 2 ppm): 0.036 mpy
- CR Peak ([1]; 2 ppm): 0.392 mpy
- corrosion rate ([1]; 2 ppm, 0 hrs): 0.0175 mpy
- corrosion rate ([1]; 2 ppm, 1 hrs): 0.3923 mpy
- corrosion rate ([1]; 2 ppm, 2 hrs): 0.3065 mpy
- corrosion rate ([1]; 2 ppm, 3 hrs): 0.2159 mpy
- corrosion rate ([1]; 2 ppm, 4 hrs): 0.1420 mpy
- corrosion rate ([1]; 2 ppm, 5 hrs): 0.1385 mpy
- corrosion rate ([1]; 2 ppm, 6 hrs): 0.1059 mpy
- corrosion rate ([1]; 2 ppm, 7 hrs): 0.0894 mpy
- corrosion rate ([1]; 2 ppm, 8 hrs): 0.0705 mpy
- corrosion rate ([1]; 2 ppm, 9 hrs): 0.0631 mpy
- corrosion rate ([1]; 2 ppm, 10 hrs): 0.0512 mpy
- corrosion rate ([1]; 2 ppm, 11 hrs): 0.0461 mpy
- corrosion rate ([1]; 2 ppm, 12 hrs): 0.0419 mpy
- corrosion rate ([1]; 2 ppm, 13 hrs): 0.0378 mpy
- corrosion rate ([1]; 2 ppm, 14 hrs): 0.0347 mpy
- corrosion rate ([1]; 2 ppm, 15 hrs): 0.0304 mpy
- corrosion rate ([1]; 2 ppm, 16 hrs): 0.0282 mpy
- corrosion rate ([1]; 2 ppm, 17 hrs): 0.0262 mpy
- corrosion rate ([1]; 2 ppm, 18 hrs): 0.0242 mpy
- corrosion inhibition properties over the entire 18 hour period (in words) ([1]; 2 ppm): good corrosion inhibition properties
- Cl2 Demand ([2]; 2 ppm): 0.7 mg/L

Compound: Sodium Cocoamphoacetate [SCAA]
- CR Average (10-18 hrs) ([1]; 2 ppm): 0.017 mpy
- CR Peak ([1]; 2 ppm): 0.197 mpy
- corrosion rate ([1]; 2 ppm, 0 hrs): 0.0217 mpy
- corrosion rate ([1]; 2 ppm, 1 hrs): 0.1969 mpy
- corrosion rate ([1]; 2 ppm, 2 hrs): 0.0988 mpy
- corrosion rate ([1]; 2 ppm, 3 hrs): 0.0761 mpy
- corrosion rate ([1]; 2 ppm, 4 hrs): 0.0602 mpy
- corrosion rate ([1]; 2 ppm, 5 hrs): 0.0506 mpy
- corrosion rate ([1]; 2 ppm, 6 hrs): 0.0473 mpy
- corrosion rate ([1]; 2 ppm, 7 hrs): 0.0347 mpy
- corrosion rate ([1]; 2 ppm, 8 hrs): 0.0293 mpy
- corrosion rate ([1]; 2 ppm, 9 hrs): 0.0257 mpy
- corrosion rate ([1]; 2 ppm, 10 hrs): 0.0231 mpy
- corrosion rate ([1]; 2 ppm, 11 hrs): 0.0212 mpy
- corrosion rate ([1]; 2 ppm, 12 hrs): 0.0191 mpy
- corrosion rate ([1]; 2 ppm, 13 hrs): 0.0177 mpy
- corrosion rate ([1]; 2 ppm, 14 hrs): 0.0166 mpy
- corrosion rate ([1]; 2 ppm, 15 hrs): 0.0156 mpy
- corrosion rate ([1]; 2 ppm, 16 hrs): 0.0142 mpy
- corrosion rate ([1]; 2 ppm, 17 hrs): 0.0139 mpy
- corrosion rate ([1]; 2 ppm, 18 hrs): 0.0128 mpy
- corrosion inhibition properties over the entire 18 hour period (in words) ([1]; 2 ppm): good corrosion inhibition properties
- Cl2 Demand ([2]; 2 ppm): 1.0 mg/L

Compound: CCCCCCCCCCCCN(CCC(=O)[O-])CCC(=O)O.[Na+] [SL, Sodium Lauriminodipropionate, reference compound]
- CR Average (10-18 hrs) ([1]; 2 ppm): 0.067 mpy
- CR Peak ([1]; 2 ppm): 0.932 mpy
- corrosion rate ([1]; 2 ppm, 0 hrs): 0.0368 mpy
- corrosion rate ([1]; 2 ppm, 1 hrs): 0.9317 mpy
- corrosion rate ([1]; 2 ppm, 2 hrs): 0.4889 mpy
- corrosion rate ([1]; 2 ppm, 3 hrs): 0.3498 mpy
- corrosion rate ([1]; 2 ppm, 4 hrs): 0.2185 mpy
- corrosion rate ([1]; 2 ppm, 5 hrs): 0.1644 mpy
- corrosion rate ([1]; 2 ppm, 6 hrs): 0.1286 mpy
- corrosion rate ([1]; 2 ppm, 7 hrs): 0.1128 mpy
- corrosion rate ([1]; 2 ppm, 8 hrs): 0.0992 mpy
- corrosion rate ([1]; 2 ppm, 9 hrs): 0.0910 mpy
- corrosion rate ([1]; 2 ppm, 10 hrs): 0.0854 mpy
- corrosion rate ([1]; 2 ppm, 11 hrs): 0.0779 mpy
- corrosion rate ([1]; 2 ppm, 12 hrs): 0.0757 mpy
- corrosion rate ([1]; 2 ppm, 13 hrs): 0.0685 mpy
- corrosion rate ([1]; 2 ppm, 14 hrs): 0.0643 mpy
- corrosion rate ([1]; 2 ppm, 15 hrs): 0.0613 mpy
- corrosion rate ([1]; 2 ppm, 16 hrs): 0.0580 mpy
- corrosion rate ([1]; 2 ppm, 17 hrs): 0.0543 mpy
- corrosion rate ([1]; 2 ppm, 18 hrs): 0.0536 mpy
- corrosion inhibition properties over the entire 18 hour period (in words) ([1]; 2 ppm): did not perform well
- Cl2 Demand ([2]; 2 ppm): 0.7 mg/L

Compound: CCCCCCCCCCCCCCCCCCN(C(=O)CC(C(=O)[O-])S(=O)(=O)[O-])C(CC(=O)[O-])C(=O)[O-].[Na+].[Na+].[Na+].[Na+] (stereo not shown) [TDSS, Tetrasodium Dicarboxyethyl Stearyl Sulfosuccinamate, reference compound]
- CR Average (10-18 hrs) ([1]; 7 ppm): 0.141 mpy
- CR Peak ([1]; 7 ppm): 0.243 mpy
- corrosion rate ([1]; 7 ppm, 0 hrs): 0.0149 mpy
- corrosion rate ([1]; 7 ppm, 1 hrs): 0.1875 mpy
- corrosion rate ([1]; 7 ppm, 2 hrs): 0.2432 mpy
- corrosion rate ([1]; 7 ppm, 3 hrs): 0.2313 mpy
- corrosion rate ([1]; 7 ppm, 4 hrs): 0.1839 mpy
- corrosion rate ([1]; 7 ppm, 5 hrs): 0.1611 mpy
- corrosion rate ([1]; 7 ppm, 6 hrs): 0.1349 mpy
- corrosion rate ([1]; 7 ppm, 7 hrs): 0.1387 mpy
- corrosion rate ([1]; 7 ppm, 8 hrs): 0.1304 mpy
- corrosion rate ([1]; 7 ppm, 9 hrs): 0.1291 mpy
- corrosion rate ([1]; 7 ppm, 10 hrs): 0.1381 mpy
- corrosion rate ([1]; 7 ppm, 11 hrs): 0.1431 mpy
- corrosion rate ([1]; 7 ppm, 12 hrs): 0.1363 mpy
- corrosion rate ([1]; 7 ppm, 13 hrs): 0.1485 mpy
- corrosion rate ([1]; 7 ppm, 14 hrs): 0.1371 mpy
- corrosion rate ([1]; 7 ppm, 15 hrs): 0.1428 mpy
- corrosion rate ([1]; 7 ppm, 16 hrs): 0.1422 mpy
- corrosion rate ([1]; 7 ppm, 17 hrs): 0.1375 mpy
- corrosion rate ([1]; 7 ppm, 18 hrs): 0.1422 mpy
- Cl2 Demand ([2]; 7 ppm): 0.8 mg/L

Compound: O=C([O-])C(O)[C@H](O)[C@@H](O)[C@H](O)[C@H](O)CO.[Na+] (stereo partly shown) [Glucoheptonate, NaGlucoheptonate, reference compound]
- CR Average (10-18 hrs) ([1]; 5 ppm): 0.278 mpy
- CR Peak ([1]; 5 ppm): 2.670 mpy
- corrosion rate ([1]; 5 ppm, 0 hrs): 0.074 mpy
- corrosion rate ([1]; 5 ppm, 1 hrs): 2.670 mpy
- corrosion rate ([1]; 5 ppm, 2 hrs): 2.004 mpy
- corrosion rate ([1]; 5 ppm, 3 hrs): 1.238 mpy
- corrosion rate ([1]; 5 ppm, 4 hrs): 0.784 mpy
- corrosion rate ([1]; 5 ppm, 5 hrs): 0.536 mpy
- corrosion rate ([1]; 5 ppm, 6 hrs): 0.504 mpy
- corrosion rate ([1]; 5 ppm, 7 hrs): 0.449 mpy
- corrosion rate ([1]; 5 ppm, 8 hrs): 0.357 mpy
- corrosion rate ([1]; 5 ppm, 9 hrs): 0.331 mpy
- corrosion rate ([1]; 5 ppm, 10 hrs): 0.311 mpy
- corrosion rate ([1]; 5 ppm, 11 hrs): 0.297 mpy
- corrosion rate ([1]; 5 ppm, 12 hrs): 0.288 mpy
- corrosion rate ([1]; 5 ppm, 13 hrs): 0.280 mpy
- corrosion rate ([1]; 5 ppm, 14 hrs): 0.274 mpy
- corrosion rate ([1]; 5 ppm, 15 hrs): 0.269 mpy
- corrosion rate ([1]; 5 ppm, 16 hrs): 0.267 mpy
- corrosion rate ([1]; 5 ppm, 17 hrs): 0.260 mpy
- corrosion rate ([1]; 5 ppm, 18 hrs): 0.257 mpy
- Cl2 Demand ([2]; 5 ppm): 0.5 mg/L

Compound: CCCCCCCC(=O)NCCN(CCOCCC(=O)[O-])CCC(=O)[O-].[Na+].[Na+] [DCADPP, Disodium Capryloamphodipropionate]
- CR Average (10-18 hrs) ([1]; 2 ppm): 0.304 mpy
- CR Peak ([1]; 2 ppm): 2.169 mpy
- corrosion rate ([1]; 2 ppm, 0 hrs): 0.0293 mpy
- corrosion rate ([1]; 2 ppm, 1 hrs): 2.1690 mpy
- corrosion rate ([1]; 2 ppm, 2 hrs): 1.4770 mpy
- corrosion rate ([1]; 2 ppm, 3 hrs): 1.3090 mpy
- corrosion rate ([1]; 2 ppm, 4 hrs): 0.6705 mpy
- corrosion rate ([1]; 2 ppm, 5 hrs): 0.6007 mpy
- corrosion rate ([1]; 2 ppm, 6 hrs): 0.6353 mpy
- corrosion rate ([1]; 2 ppm, 7 hrs): 0.5403 mpy
- corrosion rate ([1]; 2 ppm, 8 hrs): 0.4352 mpy
- corrosion rate ([1]; 2 ppm, 9 hrs): 0.3962 mpy
- corrosion rate ([1]; 2 ppm, 10 hrs): 0.3671 mpy
- corrosion rate ([1]; 2 ppm, 11 hrs): 0.3426 mpy
- corrosion rate ([1]; 2 ppm, 12 hrs): 0.3293 mpy
- corrosion rate ([1]; 2 ppm, 13 hrs): 0.3130 mpy
- corrosion rate ([1]; 2 ppm, 14 hrs): 0.2994 mpy
- corrosion rate ([1]; 2 ppm, 15 hrs): 0.2826 mpy
- corrosion rate ([1]; 2 ppm, 16 hrs): 0.2749 mpy
- corrosion rate ([1]; 2 ppm, 17 hrs): 0.2691 mpy
- corrosion rate ([1]; 2 ppm, 18 hrs): 0.2604 mpy
- corrosion inhibition properties over the entire 18 hour period (in words) ([1]; 2 ppm): inferior corrosion inhibition properties
- corrosion resistance when free chlorine was added (in words) ([1]; 2 ppm): substantial deterioration in corrosion resistance
- Cl2 Demand ([2]; 2 ppm): 1.0 mg/L

Compound: Disodium Cocoamphodiacetate [DCADAA]
- CR Average (10-18 hrs) ([1]; 2 ppm): 0.036 mpy
- CR Peak ([1]; 2 ppm): 0.180 mpy
- corrosion rate ([1]; 2 ppm, 0 hrs): 0.0198 mpy
- corrosion rate ([1]; 2 ppm, 1 hrs): 0.1804 mpy
- corrosion rate ([1]; 2 ppm, 2 hrs): 0.1576 mpy
- corrosion rate ([1]; 2 ppm, 3 hrs): 0.1608 mpy
- corrosion rate ([1]; 2 ppm, 4 hrs): 0.1140 mpy
- corrosion rate ([1]; 2 ppm, 5 hrs): 0.1360 mpy
- corrosion rate ([1]; 2 ppm, 6 hrs): 0.0910 mpy
- corrosion rate ([1]; 2 ppm, 7 hrs): 0.0780 mpy
- corrosion rate ([1]; 2 ppm, 8 hrs): 0.0629 mpy
- corrosion rate ([1]; 2 ppm, 9 hrs): 0.0545 mpy
- corrosion rate ([1]; 2 ppm, 10 hrs): 0.0516 mpy
- corrosion rate ([1]; 2 ppm, 11 hrs): 0.0459 mpy
- corrosion rate ([1]; 2 ppm, 12 hrs): 0.0419 mpy
- corrosion rate ([1]; 2 ppm, 13 hrs): 0.0375 mpy
- corrosion rate ([1]; 2 ppm, 14 hrs): 0.0349 mpy
- corrosion rate ([1]; 2 ppm, 15 hrs): 0.0316 mpy
- corrosion rate ([1]; 2 ppm, 16 hrs): 0.0290 mpy
- corrosion rate ([1]; 2 ppm, 17 hrs): 0.0246 mpy
- corrosion rate ([1]; 2 ppm, 18 hrs): 0.0252 mpy
- corrosion inhibition properties over the entire 18 hour period (in words) ([1]; 2 ppm): good corrosion inhibition properties
- Cl2 Demand ([2]; 2 ppm): 0.6 mg/L

Compound: CCCCCCCC(=O)NCCN(CCOCC(=O)[O-])CC(=O)[O-].[Na+].[Na+] [DCyADAA, Disodium Capryloamphodiacetate]
- CR Average (10-18 hrs) ([1]; 2 ppm): 0.271 mpy
- CR Peak ([1]; 2 ppm): 2.854 mpy
- corrosion rate ([1]; 2 ppm, 0 hrs): 0.0230 mpy
- corrosion rate ([1]; 2 ppm, 1 hrs): 2.8540 mpy
- corrosion rate ([1]; 2 ppm, 2 hrs): 1.5850 mpy
- corrosion rate ([1]; 2 ppm, 3 hrs): 1.3860 mpy
- corrosion rate ([1]; 2 ppm, 4 hrs): 0.5261 mpy
- corrosion rate ([1]; 2 ppm, 5 hrs): 0.6207 mpy
- corrosion rate ([1]; 2 ppm, 6 hrs): 0.5852 mpy
- corrosion rate ([1]; 2 ppm, 7 hrs): 0.4766 mpy
- corrosion rate ([1]; 2 ppm, 8 hrs): 0.4185 mpy
- corrosion rate ([1]; 2 ppm, 9 hrs): 0.3747 mpy
- corrosion rate ([1]; 2 ppm, 10 hrs): 0.3416 mpy
- corrosion rate ([1]; 2 ppm, 11 hrs): 0.3181 mpy
- corrosion rate ([1]; 2 ppm, 12 hrs): 0.2953 mpy
- corrosion rate ([1]; 2 ppm, 13 hrs): 0.2800 mpy
- corrosion rate ([1]; 2 ppm, 14 hrs): 0.2681 mpy
- corrosion rate ([1]; 2 ppm, 15 hrs): 0.2352 mpy
- corrosion rate ([1]; 2 ppm, 16 hrs): 0.2411 mpy
- corrosion rate ([1]; 2 ppm, 17 hrs): 0.2394 mpy
- corrosion rate ([1]; 2 ppm, 18 hrs): 0.2217 mpy
- corrosion inhibition properties over the entire 18 hour period (in words) ([1]; 2 ppm): inferior corrosion inhibition properties
- corrosion resistance when free chlorine was added (in words) ([1]; 2 ppm): substantial deterioration in corrosion resistance
- Cl2 Demand ([2]; 2 ppm): 1.1 mg/L

Reference: patent US20250270707A1, “NON-TRIAZOLE IMIDAZOLINE AND AMIDE COMPOUNDS AND METHODS FOR INHIBITING CORROSION IN INDUSTRIAL WATER TREATMENT” (CHEMTREAT, INC., priority 2023, published 2025)
